“And” between values parts separate entries of the source, which are not always exact repeats. Equal entries are not always repeated. Numbers after ± are expanded uncertainties.
Experiments:
[1] = Liquid; for mass density: 101.3 kPa; for Normal boiling temperature: Closed cell (Static) method
[2] = excess molar enthalpy (molar enthalpy of mixing); xn = mol fraction of the nth substance listed; conditions: 318.15 K, 101.3 kPa, Liquid
[3] = xn = mol fraction of the nth substance listed; conditions: 101.3 kPa, Liquid

mass density ([1]; 298.15 K) [kg/m3]	mass density ([1]; 303.15 K)	mass density ([1]; 313.15 K) [kg/m3]	mass density ([1]; 318.15 K) [kg/m3]	Normal boiling temperature [1] [°C]	mass density ([1]; 293.15 K) [kg/m3]	SMILES	also measured
726.2 ± 0.5	722.3 ± 0.5 kg/m3	714.7 ± 0.5	710.9 ± 0.5	173.8 ± 0.2	–	CCCCCCCCCC [decane]	–
–	–	–	–	–	–	COC(=O)OC [dimethyl carbonate] + CCCCCCCCC	excess molar enthalpy ([2]; x1 = 1): 0 ± 0.000478 kcal/mol; mass density ([3]; 293.15 K, x1 = 1): 1070 ± 0.6 kg/m3; mass density ([3]; 298.15 K, x1 = 1): 1063.5 ± 0.6 kg/m3; mass density ([3]; 303.15 K, x1 = 1): 1056.6 ± 0.6 kg/m3; mass density ([3]; 313.15 K, x1 = 1): 1043.4 ± 0.5 kg/m3; mass density ([3]; 318.15 K, x1 = 1): 1036.9 ± 0.5 kg/m3
–	–	–	–	–	–	COC(=O)OC [dimethyl carbonate] + CCCCCCCCCC	excess molar enthalpy ([2]; x1 = 1): 0 ± 0.000478 kcal/mol; mass density ([3]; 298.15 K, x1 = 1): 1063.5 ± 0.6 kg/m3; mass density ([3]; 303.15 K, x1 = 1): 1056.6 ± 0.6 kg/m3; mass density ([3]; 313.15 K, x1 = 1): 1043.4 ± 0.5 kg/m3; mass density ([3]; 318.15 K, x1 = 1): 1036.9 ± 0.5 kg/m3
679.4 ± 0.5	675.3 ± 0.5 kg/m3	666.6 ± 0.5	661.5 ± 0.5	98.03 ± 0.2	683.6 ± 0.5	CCCCCCC [heptane]	–
–	–	–	–	–	–	CCCCCCC [heptane] + COC(=O)OC	excess molar enthalpy ([2]; x2 = 0): 0 ± 0.000478 kcal/mol; mass density ([3]; 293.15 K, x2 = 0): 683.6 ± 0.5 kg/m3; mass density ([3]; 298.15 K, x2 = 0): 679.4 ± 0.5 kg/m3; mass density ([3]; 303.15 K, x2 = 0): 675.3 ± 0.5 kg/m3; mass density ([3]; 313.15 K, x2 = 0): 666.6 ± 0.5 kg/m3; mass density ([3]; 318.15 K, x2 = 0): 661.5 ± 0.5 kg/m3
654.8 ± 0.5	650.4 ± 0.5 kg/m3	641.1 ± 0.6	636.4 ± 0.6	68.78 ± 0.2	659.3 ± 0.5	CCCCCC [hexane]	–
–	–	–	–	–	–	CCCCCC [hexane] + COC(=O)OC	excess molar enthalpy ([2]; x2 = 0): 0 ± 0.000478 kcal/mol; mass density ([3]; 293.15 K, x2 = 0): 659.3 ± 0.5 kg/m3; mass density ([3]; 298.15 K, x2 = 0): 654.8 ± 0.5 kg/m3; mass density ([3]; 303.15 K, x2 = 0): 650.4 ± 0.5 kg/m3; mass density ([3]; 313.15 K, x2 = 0): 641.1 ± 0.6 kg/m3; mass density ([3]; 318.15 K, x2 = 0): 636.4 ± 0.6 kg/m3
713.9 ± 0.5	710.1 ± 0.5 kg/m3	702.2 ± 0.5	698.1 ± 0.5	150.51 ± 0.2	717.7 ± 0.5	CCCCCCCCC [nonane]	–
698.5 ± 0.5	694.5 ± 0.5 kg/m3	686.3 ± 0.5	682.1 ± 0.5	125.50 ± 0.2	702.5 ± 0.5	CCCCCCCC [octane]	–
–	–	–	–	–	–	CCCCCCCC [octane] + COC(=O)OC	excess molar enthalpy ([2]; x2 = 0): 0 ± 0.000478 kcal/mol; mass density ([3]; 293.15 K, x2 = 0): 702.5 ± 0.5 kg/m3; mass density ([3]; 298.15 K, x2 = 0): 698.5 ± 0.5 kg/m3; mass density ([3]; 303.15 K, x2 = 0): 694.5 ± 0.5 kg/m3; mass density ([3]; 313.15 K, x2 = 0): 686.3 ± 0.5 kg/m3; mass density ([3]; 318.15 K, x2 = 0): 682.1 ± 0.5 kg/m3

SMILES	mass density ([1]; 298.15 K) [kg/m3]	mass density ([1]; 303.15 K)	mass density ([1]; 313.15 K) [kg/m3]	mass density ([1]; 318.15 K) [kg/m3]	Normal boiling temperature [1] [°C]	mass density ([1]; 293.15 K) [kg/m3]	also measured
COC(=O)OC [dimethyl carbonate]	1063.5 ± 0.6	1056.5 ± 0.6 kg/m3 and 1056.6 ± 0.6 kg/m3	1043.4 ± 0.5	1036.9 ± 0.5	90.31 ± 0.2	1070 ± 0.6	–
